system: RAG01 (derived from fibroblasts of a patient diagnosed with SSMD) fibroblasts; test: CellTiter-Glo concentration response in RAG01 fibroblasts; format: cell-based, human; settings: Homo sapiens, Fibroblast, 72 h
Procedure: Compounds described herein were tested in three cell lines, RAG01 (derived from fibroblasts of a patient diagnosed with SSMD) fibroblasts, RAG02 (derived from fibroblasts of the patient's parent), and GM09503 (from supplier Corriell) (derived from a healthy donor) to each generate 10-point concentration response curves (CRC). The three cell lines were each thawed seven (7) days prior to seeding. The RAG01 cells were thawed in a medium supplemented with a-tocopherol. Cells were passaged four (4) days prior to the seeding. The α-tocopherol was removed from the RAG01 cells. Cells were then seeded at 900 cells per well in 384-well plates. Two replicates were prepared for two independent (replicate) experiments. All plates were then incubated with compounds described herein for 72 hours, prior to CellTiter-Glo assay. […] The assay was run using the CellTiter-Glo (Promega) following manufacturer's guidelines and luminescent spectrophotometric reading on PHERAstar FSX (BMG Labtech). A 0.1% dimethylsulfoxide (DMSO) was used as a blank (vehicle control); and a 1 μM Ferrostatin-1 was used as a control (CTRL).
(§1) The raw data was analyzed using Activity Base® software. The compounds were evaluated by efficacy (percentage effect) normalized to the vehicle control. The percentage effect (PE) was determined from the signal increase in comparison to the vehicle control according to the formula below: […]
The percentage effect values were then plotted against log concentration of the drug to generate a concentration response curve. The curves were fitted using a four-parameter fit, and curve tops and hillslopes were fixed where required and justified.

Row | Compound | EC50 [nM]
1 | COC(=O)c1cc2c(C(F)(F)F)cc(-c3ccccc3)cc2n1O [compound 100, NHI-2] | 1310

same assay, conditions: Homo sapiens, Fibroblast; RAG01 cell line; 72 hours incubation; CellTiter-Glo; percentage effect normalized to vehicle control; 10-point CRC from 10 μM; read-out: EC50

Row | Compound | EC50 [nM]
2 | CCN1CCC(n2cc(CNc3cc(Cl)c4ncc(C#N)c(Nc5ccc(F)c(Cl)c5)c4c3)nn2)CC1 [compound 72, Cot inhibitor-2] | 77
3 | O=C1NC(=O)c2cc(Nc3ccc(F)cc3)c(Nc3ccc(F)cc3)cc21 [compound 73, CGP 53353] | 168
4 | COc1ccc2c(c1)c(C1=C(c3c[nH]c4ccccc34)C(=O)NC1=O)cn2CCCN(C)C [compound 74, Go 6983] | 764
5 | CN1CCN(Cc2ccc(-c3cnc4[nH]cc(-c5ccc6[nH]ccc6c5)c4c3)cc2)CC1 [compound 75, URMC-099] | 377
6 | COc1cc(N2CCC(N3CCN(C)CC3)CC2)ccc1Nc1ncc(Cl)c(Nc2ccccc2S(=O)(=O)C(C)C)n1 [compound 76, NVP-TAE684] | 480
7 | CNC(=O)c1ccccc1Nc1cc(Nc2ccc(N3CCOCC3)cc2OC)ncc1C(F)(F)F [compound 77, PND-1186 (VS-4718)] | 611
8 | O=C1Nc2cc(Br)ccc2/C1=C1/Nc2ccccc2/C1=N\O [compound 79, GSK-3-inhibitor-IX] | 559
9 | CCOc1cc(N2CCC(O)CC2)ccc1Nc1ncc2c(n1)N(C1CCCC1)CCC(=O)N2C [compound 80, Mps1-IN-1] | 452
10 | Cc1cc(N2CCOCC2)ccc1Nc1nc(NC2CCCCC2)c2nc[nH]c2n1 [compound 81, MPI-0479605] | 688
11 | Cc1ccc(NC(=O)c2ccc(CN3CCN(C)CC3)cc2)cc1Nc1nc(-c2cccnc2)cs1 [compound 82, Masitinib (AB1010)] | 916
12 | Cc1ccccc1C(=O)c1ccc(Nc2ccc(Br)cc2N)cc1Cl [compound 83, EO-1428] | 1040
13 | NC(=O)c1nc(Nc2ccccc2)sc1NC(=O)C1CCCCC1 [compound 85, UNC-3230] | 1240
14 | CC1(C)CNc2cc(NC(=O)c3cccnc3NCc3ccncc3)ccc21 [compound 86, Motesanib] | 1460
15 | Cc1ccc(F)c(NC(=O)Nc2ccc(-c3cccc4[nH]nc(N)c34)cc2)c1 [compound 87, Linifanib] | 1650
16 | Cc1c(NC(=O)OC[C@@H]2COCCN2)cn2ncnc(Nc3ccc4c(cnn4Cc4cccc(F)c4)c3)c12 [compound 88, BMS-599626] | 2300
17 | CC(C)(C)C(=O)/C(=N/c1ccc(Cl)cc1)NNc1ccc(Cl)cc1 [compound 90, TY 52156] | 117
18 | O=C1c2cccnc2C(=O)C(NCCN2CCOCC2)C1Cl (centres unmarked) [compound 91, NSC 663284] | 268

Row | Compound | EC50 [nM]
19 | COc1ccc2nc3cc(Cl)ccc3c(Nc3cc(CN4CCCC4)c(O)c(CN4CCCC4)c3)c2n1 [compound 92, pyronaridine] | 416
20 | COC(=O)c1sccc1S(=O)(=O)Nc1ccc(Nc2ccccc2)cc1OC [compound 93, GSK-0660] | 438
21 | OC(CNc1ccccc1)Cn1c2ccc(Br)cc2c2cc(Br)ccc21 (centres unmarked) [compound 94, P7C3] | 652
22 | Cc1cccc(Nc2nc(-c3ccncc3)cs2)c1 [compound 95, STF-62247] | 739
23 | COc1ccc(-c2nc(-c3ccc(-c4cccc(Cl)c4)o3)[nH]c2-c2ccc(OC)cc2)cc1 [compound 96, neurodazine] | 956
24 | c1ccc2c(Oc3nc(Nc4ccc(N5CCOCC5)cc4)c4ncn(C5CCCCC5)c4n3)cccc2c1 [compound 97, Purmorphamine] | 1100
25 | C[C@@H]1CC(=O)c2c(ccc3c2C(=O)c2cccc(O)c2C3=O)C1 [compound 98, ochromycinone] | 1150
26 | O=C1C=Cc2cc(Br)ccc2C1=O [compound 99, bonaphthone] | 1260
27 | Cc1[nH]c(/C=C2\C(=O)Nc3cc(-c4ccccc4)ccc32)c(C)c1CCC(=O)O [compound 101, su-16f] | 1380
28 | N#Cc1ccc(-c2csc(NN=C3CCCC3)n2)cc1 [compound 103, remodelin] | 1560
29 | COC(=O)/C=C/c1cccc(N(Cc2ccc(-c3ccc(N(C)C)cc3)cc2)C(=O)C2CCCCC2)c1 [compound 104, Fexaramine] | 1720
30 | CC(C)(C)c1cc(C(C)(C)C)c(NC(=O)c2c[nH]c3ccccc3c2=O)cc1O [compound 105, ivacaftor] | 1840
31 | Cc1nn(C)c2nc(NNC(=O)Nc3cc(Cl)nc(Cl)c3)cc(C(C)C)c12 [compound 106, JTE-013] | 2470
32 | COc1cc(OC)cc(C(=O)NNC(=O)Nc2cccc3ccccc23)c1 [compound 107, TC-O-9311] | 3550
33 | Cn1cc(/C=C/C(=O)c2cccc(F)c2)cc1/C=C/C(=O)NO [compound 108, MC1568] | 3770
34 | COc1ccc2c3c([nH]c2c1)[C@H](CC(C)C)N1C(=O)[C@H](CCC(=O)OC(C)(C)C)NC(=O)[C@@H]1C3 [compound 109, Ko 143] | 3940
35 | CCC[C@H](N[C@H]1CCc2cc(F)cc(F)c2C1)C(=O)Nc1cn(C(C)(C)CNCC(C)(C)C)cn1 [compound 110, Nirogacestat] | 5560

same assay, conditions: RAG01 cell line; 72 hours incubation; CellTiter-Glo; percentage effect normalized to vehicle control; 10-point CRC from 10 μM; read-out: EC50

Row | Compound | EC50 [nM]
36 | CCCCCCCCCCC(O)C1C=CC2C(=O)N(c3ccccc3)C(=O)C2N1Nc1ccc([N+](=O)[O-])cc1 (centres unmarked) [compound 89, A12B4C3] | 2670
37 | butylated hydroxyanisole [compound 11] | 1180
38 | licochalcone [compound 21] | 1070
39 | piperacetazine [compound 45] | 1580

system: RAG02 (derived from fibroblasts of the patient's parent); test: CellTiter-Glo assay in RAG02 control cell line; format: cell-based, human; settings: 1 μM control, 72 hours
Procedure: (§2) Compounds described herein were tested in three cell lines, RAG01 (derived from fibroblasts of a patient diagnosed with SSMD) fibroblasts, RAG02 (derived from fibroblasts of the patient's parent), and GM09503 (from supplier Corriell) (derived from a healthy donor) to each generate 10-point concentration response curves (CRC). The three cell lines were each thawed seven (7) days prior to seeding. The RAG01 cells were thawed in a medium supplemented with a-tocopherol. Cells were passaged four (4) days prior to the seeding. The α-tocopherol was removed from the RAG01 cells. Cells were then seeded at 900 cells per well in 384-well plates. Two replicates were prepared for two independent (replicate) experiments. All plates were then incubated with compounds described herein for 72 hours, prior to CellTiter-Glo assay. The compounds were tested in 10-point concentration (CRCs) from 10 μM using 3.16×(half Log) dilutions. The assay was run using the CellTiter-Glo (Promega) following manufacturer's guidelines and luminescent spectrophotometric reading on PHERAstar FSX (BMG Labtech). […]
as §1

Row | Compound | effect of control compound on RAG02 cells
40 | CCOC(=O)c1ccc(NC2CCCCC2)c(N)c1 [Ferrostain-1, Ferrostatin-1] | No effect

system: GM09503 (derived from a healthy donor); test: CellTiter-Glo assay in GM09503 control cell line; format: cell-based, human; settings: 1 μM control, 72 hours
Procedure: as §2, §1

Row | Compound | effect of control compound on GM09503 cells
41 | CCOC(=O)c1ccc(NC2CCCCC2)c(N)c1 [Ferrostain-1, Ferrostatin-1] | No effect

Source: US20230414628A1, “METHODS FOR TREATING DISEASES MEDIATED BY GLUTATHIONE PEROXIDASE 4” (priority 2022, published 2023)
